In patent US20020098520A1, “Cell tests and diagnostic index for alzheimer's disease” (priority 1993, published 2002):

Assays:
166 pS K^+ channel = assay: Patch-clamp, cell-free patches: channel sensitivity to blockers; assay type: cell-based, human; settings: 50 mM Ba^2+, inside-out patches, n=4
Experimental: (§1) Patch-clamp experiments were performed at room temperature (21-23° C.), following standard procedures set forth in Sakmann, B. and Neher, E. (1983) Single Channels Recordings (Plenum New York) and Kukuljan, M., et al. (1991) J. Membrane Biol. 119:187. Before recordings, […] culture medium was replaced with the following solution: 150 mM NaCl, 5 mM KCl, 2 mM CaCl2, 1 MM MgCl2, 10 mM HEPES […] pH=7.4. Pipettes were made from Blue Tip capillary tubes (I.D. 1.1-1.2 mm) using a BB-CH Mecanex puller, and then filled with a high potassium solution of 140 mM KCl, 2 mM CaCl2, 1 mM MgCl2, 10 mM HEPES (NaOH), pH=7.4. Pipette resistances were approximately 6 MΩ. Records were obtained using an Axopatch-1C amplifier (dc-10 kHz), stored on tape (Toshiba PCM-video recorder), and later transferred to a personal computer using an Axolab interface. Only recordings lasting for at least 3 minutes were considered for final analysis. The pClamp suite of programs was used for single-channel data acquisition and analysis. Amplifier, interface and software were obtained from Axon Instruments (Foster City, Calif.).

113 pS K^+ channel = assay: as above; assay type: cell-based, human; settings: 50 mM Ba^2+, inside-out patches, n=4
Experimental: as §1

[1] = tested on: human skin fibroblasts (AD, AC, YC); assay type: cell-based

Row | Structure (SMILES) | response to high potassium when agent is added before stimulation [1] | further results
1 | [Ba+2] [Ba^2+] | – | sensitivity of the 166 pS channel to Ba^2+ (166 pS K^+ channel): sensitive; sensitivity of the 113 pS channel to Ba^2+ (113 pS K^+ channel): sensitive
2 | [Cl][Cd][Cl] [CdCl2] | No responses were observed | –
3 | [Cl-].[Cl-].[Co+2] [CoCl2] | No responses were observed | –
4 | O=C(O)CN(CCOCCOCCN(CC(=O)O)CC(=O)O)CC(=O)O [EGTA] | No responses were observed | –
5 | [Cl-].[K+] [KCl, potassium chloride] | – | return of [Ca^2+]i to basal levels ([1]; 50 mM KCl): 100 s; [Ca^2+]i elevation ([1]; 50 mM KCl, all three groups (AD, AC, YC)): at least 100%
6 | [Cl][La]([Cl])[Cl] [LaCl3] | No responses were observed | –
7 | [Cl][Ni][Cl] [NiCl2] | No responses were observed | –
